Source: patent US7741540B2, “Compositions comprising D-amino acids” (BASF Plant Science GmbH, priority 2002, dated 2010)
“Also recorded” adds a separate entry of the source.

Key:
[1] = system: Arabidopsis thaliana expressing Rhodotorula gracilis D-amino acid oxidase (dao1); test: Growth of plants expressing D-amino acid oxidase on D-amino acid media in sterile agar culture; assay type: in vivo
Description: Transgenic plants expressing D-amino acid oxidase were constructed essentially in the same way as the dsdA plants described above, with the following modifications: The dao1 gene (EC: 1.4.3.3 (SEQ ID NO: 6): NCBIU60066 (SEQ ID NO: 5)) from the yeast Rhodotorula gracilis (Rhodosporidium toruloides) was cloned with PCR with a cDNA library prepared from yeast grown on D-alanine containing medium to induce expression of the target gene, as a template. PCR primers were 5′-[…] (SEQ ID NO: 3) and 5′-[…] (SEQ ID NO: 4).
PCR was also performed with another set of primers, with one primer flanking the 5′ end of the open reading frame as set out above and a 3′ primer excluding the last […] nucleotides. The last nine nucleotides encode the signal peptide SKL, which guides the protein to the peroxisome sub-cellular organelle.
The resulting amplified sequences encode proteins which have the same amino acid sequence but which differ in the respect of their location in the cell. The truncated polypeptide, without the signal peptide, is expressed in the cytosol, while the full-length polypeptide is expressed in the peroxisome.
Construction of Arabidopsis thaliana plants expressing two variants of Rhodotorula gracilis D-amino acid oxidase were made as described above.

Hordeum vulgare = test: Growth of wild-type seedlings on nitrate free agar media amended with D-serine; assay type: in vivo; details: two to three weeks, 0, 0.3, 3 and 30 mM tested
Description: (§1) A. thaliana seeds from non-transformed plants and D-Serine ammonia-lyase transformed plants were surface sterilised with 70% ethanol and 0.1% Tween 80 for 10 minutes and rinsed briefly in 95% ethanol. 10 seeds were sown in each plate and the plates where thereafter sealed with gas permeable tape. The growth medium was half-strength MS (Murashige, T. & Skoog, F. Physiol Plant 15, 310-313 (1962)) (with 0.5% w/v sucrose and 0.8% w/v agar) with nitrogen either excluded or included as 3 mM nitrate. Filter sterilised D-serine was added to the medium after autoclaving. Plants were grown for 14 days after germination with a 16 h photoperiod at 24° C. Plants were extracted from the plates, washed three times in 0.5 mM CaCl2 and thereafter dried at 40° C. for 48 hours before dry weight measurements. The N content was determined on dried plants using an elemental analyser (PerkinElmer 2400 CHN). Biomass and nitrogen content were measured on a per plate basis and there were 10 plants per plate. Six independent transgenic lines were evaluated for their capacity to grow on D-serine and no substantial difference was noticed among the lines, although dsdA transcript levels varied substantially according to northern blot analyses. Seeds from Solanum esculentum, Hordeum vulgare, Zea mays, Populus tremuloides, Nicotiana tabacum and Arabidopsis thaliana were surface sterilised and grown for two to three weeks on agar media identical to the nitrate free media described above and amended with 0, 0.3, 3 and 30 mM D-serine.

Lycopersicon esculentum = test: as above; assay type: in vivo; details: two to three weeks, 0, 0.3, 3 and 30 mM tested
Description: as §1

Nicotiana tabacum = test: as above; assay type: in vivo; details: two to three weeks, 0, 0.3, 3 and 30 mM tested
Description: as §1

Populus tremuloides = test: as above; assay type: in vivo; details: two to three weeks, 0, 0.3, 3 and 30 mM tested
Description: as §1

Zea mays = test: as above; assay type: in vivo; details: two to three weeks, 0, 0.3, 3 and 30 mM tested
Description: as §1

[2] = system: wild-type Arabidopsis thaliana; test: Growth of wild-type plants on sterile agar supplied with D-serine; assay type: in vivo; details: for toxicity to wild-type plants: FIG. 3, FIG. 5
Description: as §1, with “D-serine. […] For A. thaliana, clear growth inhibition is observed at a concentration of 0.3 mM D-serine in the growth medium and total growth inhibition occurs at 3 mM (FIG. 3). Transgenic Arabidopsis thaliana plants expressing the gene encoding D-serine dehydratase were grown sterile alongside wild type plants on agar for 20 days on standard MS medium supplemented with varying concentrations of D-serine as the sole N source (30 mM, 3 mM, 0.3 mM) along with a control lacking any nitrogen.” for “D-serine.”

[3] = system: Somatic embryonic cell suspension cultures of Picea abies; test: Somatic embryonic cell suspension cultures grown on a range of D-serine concentrations; assay type: cell-based; details: 0, 0.3, 3 and 30 mM tested
Description: Somatic embryonic cell suspension cultures of Picea abies were grown on a range of D-serine concentrations; 0, 0.3, 3 and 30 mM D-serine. D-serine was lethal to cells at and above 3 mM.

[4] = system: dsdA-transformed embryos of Picea abies; test: Selection of dsdA-transformed embryos on D-serine medium; assay type: cell-based
Description: The transformation method used was particle bombardment of a cell suspension. Somatic embryonic cell suspension cultures of Picea abies were grown on a range of D-serine concentrations; 0, 0.3, 3 and 30 mM D-serine. D-serine was lethal to cells at and above 3 mM.

[5] = system: transgenic Arabidopsis thaliana expressing E. coli D-serine ammonia-lyase (dsdA); test: Growth and N content of transgenic plants expressing dsdA on D-serine media; assay type: in vivo
Description: The E. coli gene dsdA (D-serine dehydratase (D-serine deaminase) [EC:4.3.1.18 (SEQ ID NO: 8)] NCBI accession number J01603 (SEQ ID NO: 7)) was amplified by PCR using primers 5′-[…] (SEQ ID NO: 1) and 5′-[…] (SEQ ID NO: 2). The PCR product was sub-cloned into pT-easy (Promega) and sequenced with DYEnamics cycle sequencing kit, (Amersham Pharmacia biotech). Alignment analysis with the database sequence confirmed successful full length cloning of dsdA. The clone was subsequently ligated into the BamH1 site of the CaMV 35S expression cassette of the binary vector pPCV702Km, which is a disarmed Ti-plasmid of Agrobacterium tumefaciens, to generate the vector pPCV702:dsdA. Restriction analysis of this vector with endonuclease confirmed orientation of insertion.
A. thaliana, ecotype Col-0, plants were transformed with Agrobacterium tumefaciens strain (GV3101:pMP90 RK) through vacuum infiltration (Clough, S. J. & Bent, A. F. Plant Journal. 16, 735-743 (1998)). Transformants were selected on kanamycin containing plates, and molecularly confirmed using northern blots. All analyses were performed using lines homozygous for the transgenic trait.
as §1, with “analyses.” for “analyses. Seeds from Solanum esculentum, Hordeum vulgare, Zea mays, Populus tremuloides, Nicotiana tabacum and Arabidopsis thaliana were surface sterilised and grown for two to three weeks on agar media identical to the nitrate free media described above and amended with 0, 0.3, 3 and 30 mM D-serine.”
Transgenic Arabidopsis thaliana plants expressing the gene encoding D-serine dehydratase were grown sterile alongside wild type plants on agar for 20 days on standard MS medium supplemented with varying concentrations of D-serine as the sole N source (30 mM, 3 mM, 0.3 mM) along with a control lacking any nitrogen.

[6] = system: Arabidopsis seedlings grown on soil; test: Selection of transgenic seedlings on soil by spraying D-Serine; assay type: in vivo, Arabidopsis thaliana; details: 30 mM sprayed three times during one week
wild type poplar = test: Shoot formation on shoot inducing media with D-Ser; assay type: in vivo
wild type tobacco = test: Shoot formation on shoot inducing media with D-Ser; assay type: in vivo
[7] = system: poplar transformed with dsdA; test: Resistance of dsdA-transformed plants to D-Ser; details: in vivo
Description: (§2) Poplar and tobacco were transformed using the same vector and transformation protocol described above for the transformation of Arabidopsis.

[8] = system: tobacco transformed with dsdA; test: Resistance of dsdA-transformed plants to D-Ser; details: in vivo
Description: as §2

wild type Arabidopsis = test: Growth of wild type plants on D-Asn or D-ile in sterile agar culture; assay type: in vivo, Arabidopsis thaliana

C[C@@H](N)C(=O)O [D-alanine]
effect of expressed D-amino acid oxidase on toxicity of the D-amino acid ([1]; in vivo): alleviate the toxicity

N[C@H](CO)C(=O)O [D-serine]
D-serine concentration in the media at which growth was inhibited (Hordeum vulgare): 30 mM
D-serine concentration in the media at which growth was inhibited (Lycopersicon esculentum): 3 mM
D-serine concentration in the media at which growth was inhibited (Nicotiana tabacum): 3 mM
D-serine concentration in the media at which growth was inhibited (Populus tremuloides): 3 mM
D-serine concentration in the media at which growth was inhibited (Zea mays): 30 mM
growth of wild-type plants with increasing D-serine concentration ([2]; D-serine as sole N source, 0.3, 3, 30 mM (FIG. 3)): No increase
concentration in the growth medium at which clear growth inhibition is observed ([2]; FIG. 3): 0.3 mM
concentration in the growth medium at which total growth inhibition occurs ([2]; FIG. 3): 3 mM
toxicity to wild-type plants [2]: toxic effect
toxicity to wild-type plants ([2]; listed as D-ser): shows toxicity
growth and nitrogen content of wild-type plants with increasing D-serine concentration ([2]; in the presence of a basic level of nitrate (3 mM) (FIG. 5)): opposite response
D-serine concentration in the media at which growth was inhibited ([2]; nitrate free agar, two to three weeks, 0, 0.3, 3 and 30 mM tested): 3 mM
concentration lethal to cells [3]: ≥ 3 mM
D-serine concentration of medium on which transformed embryos could be selected [4]: 3 mM
N concentration of plants compared with plants grown on 3 mM nitrate ([5]; 3 mM D-serine, ANOVA p<0.0001): significantly lower
growth and N content of transgenic plants with increasing D-serine concentration ([5]; D-serine as sole N source, p<0.0001 (FIG. 4)): increase significantly
growth on D-serine compared with nitrate at equal concentration ([5]; FIG. 4(top) and 5(top)): lower growth
growth and nitrogen content of transgenic plants with increasing D-serine concentration ([5]; in the presence of a basic level of nitrate (3 mM), p<0.0001 (FIG. 5)): increased significantly
toxicity symptoms in transgenic plants ([5]; within the observed range of D-Ser): no toxicity symptoms
selection of transgenic plants by spraying [6]: Successful selection
effect of expressed D-amino acid oxidase on toxicity of the D-amino acid ([1]; in vivo): alleviate the toxicity
concentration sufficient to stop all shoot formation (wild type poplar): 3 mM
concentration sufficient to stop all shoot formation (wild type tobacco): 30 mM
concentration to which transformed plants were resistant [7]: exceeding 30 mM
concentration to which transformed plants were resistant [8]: exceeding 30 mM

CC[C@@H](C)[C@@H](N)C(=O)O [D-ile]
hindering of growth of transgenic plants expressing dao1 (compared with D-Asn) ([1]; in vivo): even more effective in hindering growth
wild type growth with increasing concentration (wild type Arabidopsis; examined interval 0.3 to 30 mM): increase in growth
inhibitory effect on wild type plants (wild type Arabidopsis; in vivo): no visible inhibitory effect

NC(=O)C[C@@H](N)C(=O)O [D-Asn]
growth / germination of D-amino oxidase expressing plants ([1]; 30 mM, sterile agar culture): total inhibition of growth; also recorded: inhibited significantly more than the wild-type
growth of wild type plants (wild type Arabidopsis; 30 mM, sterile agar culture): only partially retarded
